Assay results published in PubChem BioAssay AID1687.

These molecules were tested against pyruvate kinase (Geobacillus stearothermophilus) (assay: modulators of bacterial pyruvate kinase activity – biochemical, Geobacillus stearothermophilus, confirmation (AID 1687)). Details: purified enzyme, LDH-coupled NADH absorbance 340 nm;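 active means compounds whose fitted half-maximal concentration is at most 10.5 micromolar; inactive means the rest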.

AC50, active:
COc1cccc(CN2c3cccc4cccc(c34)S2(=O)=O)c1 5.5 µM
O=C(CN1c2cccc3cccc(c23)S1(=O)=O)NCc1ccccc1OC(F)F 7.6 µM
CCN(CC)CCn1c2ccccc2n2cc(-c3ccc4c(c3)OCO4)nc12 2.2 µM
CN(C)CCn1c2ccccc2n2cc(-c3ccc4c(c3)OCO4)nc12 1.7 µM
CCn1c2ccccc2n2cc(-c3ccc4c(c3)OCO4)nc12 2 µM
CN(C)CCCN(C(=O)c1ccc(Cl)s1)c1nc2cc3c(cc2s1)OCO3 8.9 µM
NNC(=O)c1ccc(CN2c3cccc4cccc(c34)S2(=O)=O)cc1 4.9 µM
Cn1c2ccccc2n2cc(-c3ccc4c(c3)OCO4)nc12 1 µM
C=CCn1c2ccccc2n2cc(-c3ccc4c(c3)OCO4)nc12 10.5 µM
